Results from patent publication EP3753932A1, “SUBSTITUTED BICYCLIC DERIVATIVES HAVING MULTIMODAL ACTIVITY AGAINST PAIN” (priority 2019, dated 2020).
Like-named read-outs stand apart in the source and are kept apart here.

Key:
[1] = biological target: Human α2δ-1 subunit of Cav2.2 calcium channel (Homo sapiens, UniProt P54289); assay: Human α2δ-1 subunit of Cav2.2 calcium channel assay ([3H]-Gabapentin binding)
Procedure: Human α2δ-1 subunit of Cav2.2 calcium channel assay
Human α2δ-1 enriched membranes (2.5 µg) were incubated with 15 nM of radiolabeled [3H]-Gabapentin in assay buffer containing Hepes-KOH 10mM, pH 7.4. NSB (non specific binding) was measured by adding 10 µM pregabalin. The binding of the test compound was measured at either one concentration (% inhibition at 1 or 10 µM) or five different concentrations to determine affinity values (Ki). After 60 min incubation at 27 °C, binding reaction was terminated by filtering through Multiscreen GF/C (Millipore) presoaked in 0.5 % polyethyleneimine in Vacuum Manifold Station, followed by 3 washes with ice-cold filtration buffer containing 50 mM Tris-HCl, pH 7.4. Filter plates were dried at 60 °C for 1 hour and 30 µl of scintillation cocktail were added to each well before radioactivity reading. Readings were performed in a Trilux 1450 Microbeta radioactive counter (Perkin Elmer).

[2] = biological target: T1, Human µ-opioid receptor (Homo sapiens, UniProt P35372); assay: Human µ-opioid receptor radioligand assay ([3H]-DAMGO); format: binding
T1 construct: expressed in transfected cells; host or cells: CHO-K1
Procedure: Human µ-opioid receptor radioligand assay
Transfected CHO-K1 cell membranes (20 µg) were incubated with [^3H]-DAMGO (1 nM) in assay buffer containing Tris-HCl 50 mM, MgCl2 5 mM at pH 7.4. NBS (non-specific binding) was measured by adding 10 µM Naloxone. The binding of the test compound was measured at either one concentration (% inhibition at 1 or 10 µM) or five different concentrations to determine affinity values (Ki). Plates were incubated at 27 °C for 60 min. After the incubation period, the reaction mixture was then transferred to MultiScreen HTS, FC plates (Millipore), filtered and plates were washed 3 times with ice-cold 10 mM Tris-HCl (pH 7.4). Filters were dried and counted at approximately 40% efficiency in a MicroBeta scintillation counter (Perkin-Elmer) using EcoScint liquid scintillation cocktail.

[3] = transfected CHO-K1 cell membranes, [3H]-DAMGO 1 nM, read-out: µ-binding
[4] = human α2δ-1 enriched membranes, [3H]-Gabapentin 15 nM, read-out: α2δ-1 binding

Sequence of Human α2δ-1 subunit of Cav2.2 calcium channel (P54289 25-1103): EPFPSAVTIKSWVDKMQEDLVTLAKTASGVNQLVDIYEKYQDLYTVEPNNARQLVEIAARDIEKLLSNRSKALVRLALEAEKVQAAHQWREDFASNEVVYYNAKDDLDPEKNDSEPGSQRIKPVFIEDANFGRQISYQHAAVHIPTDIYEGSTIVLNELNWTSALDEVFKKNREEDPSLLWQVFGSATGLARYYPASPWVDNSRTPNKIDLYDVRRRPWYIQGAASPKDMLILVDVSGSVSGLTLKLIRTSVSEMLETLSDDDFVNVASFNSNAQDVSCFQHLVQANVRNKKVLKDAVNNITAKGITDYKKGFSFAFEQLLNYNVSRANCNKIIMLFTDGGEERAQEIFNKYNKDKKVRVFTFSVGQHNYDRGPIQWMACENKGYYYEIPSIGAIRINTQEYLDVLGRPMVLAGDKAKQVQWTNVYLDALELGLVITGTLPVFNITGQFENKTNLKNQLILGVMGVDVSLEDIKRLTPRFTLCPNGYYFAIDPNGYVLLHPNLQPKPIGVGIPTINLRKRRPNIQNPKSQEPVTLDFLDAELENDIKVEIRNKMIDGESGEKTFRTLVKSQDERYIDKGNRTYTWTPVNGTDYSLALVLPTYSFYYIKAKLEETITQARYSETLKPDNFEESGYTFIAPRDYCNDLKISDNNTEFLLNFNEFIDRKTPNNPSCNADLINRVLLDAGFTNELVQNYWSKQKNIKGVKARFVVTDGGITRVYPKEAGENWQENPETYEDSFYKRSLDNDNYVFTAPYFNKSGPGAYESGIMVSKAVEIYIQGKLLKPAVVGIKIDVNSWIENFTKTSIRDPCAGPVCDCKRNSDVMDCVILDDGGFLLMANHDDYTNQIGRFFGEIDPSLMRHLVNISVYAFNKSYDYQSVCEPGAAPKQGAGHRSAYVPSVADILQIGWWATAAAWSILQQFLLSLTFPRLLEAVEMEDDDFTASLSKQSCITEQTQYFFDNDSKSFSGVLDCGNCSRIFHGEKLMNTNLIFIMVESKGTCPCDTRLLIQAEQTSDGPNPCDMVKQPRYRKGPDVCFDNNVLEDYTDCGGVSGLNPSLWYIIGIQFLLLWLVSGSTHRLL
T1 sequence (P35372 whole entry): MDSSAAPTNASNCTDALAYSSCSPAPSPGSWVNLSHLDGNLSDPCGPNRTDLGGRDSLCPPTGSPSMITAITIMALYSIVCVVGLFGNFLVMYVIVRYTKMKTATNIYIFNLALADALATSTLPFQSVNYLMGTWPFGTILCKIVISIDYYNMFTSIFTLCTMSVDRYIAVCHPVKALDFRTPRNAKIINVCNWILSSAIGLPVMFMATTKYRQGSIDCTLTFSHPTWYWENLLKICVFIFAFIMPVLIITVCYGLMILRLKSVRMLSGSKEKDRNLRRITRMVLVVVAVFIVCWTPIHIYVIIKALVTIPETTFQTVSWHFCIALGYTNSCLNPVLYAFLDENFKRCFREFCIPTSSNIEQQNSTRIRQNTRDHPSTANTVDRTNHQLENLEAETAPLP

Compound	Ki [1] [nM]	Ki [2, 3] [nM]	Ki [1, 4] [nM]	Ki [2] [nM]
CCCC(c1cnc2ccc(CN3CCC(c4cccc(O)c4)(N(C)C)CC3)cc2c1)N1C[C@@H](C)N[C@@H](C)C1 (stereo partly drawn) [Example 15, 3-(4-(Dimethylamino)-1-((3-(1-((3S,5R)-3,5-dimethylpiperazin-1-yl)butyl)quinolin-6-yl)methyl)piperidin-4-yl)phenol]	< 500	< 100	–	–
CCC[C@@H](c1nc2ccc(CN3CCC(c4cccc(O)c4)(N(C)C)CC3)cc2nc1CC)N1C[C@@H](C)N[C@@H](C)C1 [Example 42, 3-(4-(Dimethylamino)-1-((2-((S)-1-((3S,5R)-3,5-dimethylpiperazin-1-yl)butyl)-3-ethylquinoxalin-6-yl)methyl)piperidin-4-yl)phenol]	–	–	500 to 5000	< 100
CCC[C@@H](c1cnc2ccc(CN3CCC(c4ccccc4)(N(C)C)CC3)cc2c1)N1C[C@@H](C)N[C@@H](C)C1 [Example 19, 1-((3-((S)-1-((3S,5R)-3,5-Dimethylpiperazin-1-yl)butyl)quinolin-6-yl)methyl)-N,N-dimethyl-4-phenylpiperidin-4-amine]	–	–	> 5000	< 100
CCC[C@@H](c1cnc2ccc(CN3CCC(c4cccc(O)c4)(N(C)C)CC3)cc2n1)N1C[C@@H](C)N[C@@H](C)C1 [Example 39, 3-(4-(Dimethylamino)-1-((3-((S)-1-((3S,5R)-3,5-dimethylpiperazin-1-yl)butyl)quinoxalin-6-yl)methyl)piperidin-4-yl)phenol]	–	–	500 to 5000	< 100
CCCC(c1ncc2cc(N3CCC(c4cccc(O)c4)(N(C)C)CC3)ccc2n1)N1C[C@@H](C)N[C@@H](C)C1 (stereo partly drawn) [Example 25, 3-(4-(Dimethylamino)-1-(2-(1-((3S,5R)-3,5-dimethylpiperazin-1-yl)butyl)quinazolin-6-yl)piperidin-4-yl)phenol]	> 5000	< 100	–	–
CCC[C@@H](c1cnc2ccc(N3CCC(c4cccc(O)c4)(N(C)C)CC3)cc2n1)N1C[C@@H](C)N[C@@H](C)C1 [Example 35, 3-(4-(Dimethylamino)-1-(3-((S)-1-((3S,5R)-3,5-dimethylpiperazin-1-yl)butyl)quinoxalin-6-yl)piperidin-4-yl)phenol]	–	–	500 to 5000	100 to 500
CCC[C@@H](c1ncc2cc(CN3CCC(c4cccc(O)c4)(N(C)C)CC3)ccc2n1)N1C[C@@H](C)N[C@@H](C)C1 [Example 30, 3-(4-(Dimethylamino)-1-((2-((S)-1-((3S,5R)-3,5-dimethylpiperazin-1-yl)butyl)quinazolin-6-yl)methyl)piperidin-4-yl)phenol]	–	–	> 5000	< 100
CCCC(c1ncc2cc(CN3CCC(c4cccc(O)c4)(N(C)C)CC3)ccc2n1)N1C[C@@H](C)N[C@@H](C)C1 (stereo partly drawn) [Example 28, 3-(4-(Dimethylamino)-1-((2-(1-((3S,5R)-3,5-dimethylpiperazin-1-yl)butyl)quinazolin-6-yl)methyl)piperidin-4-yl)phenol]	–	–	> 5000	< 100
CCC[C@H](c1cnc2ccc(N3CCC(c4cccc(O)c4)(N(C)C)CC3)cc2n1)N1C[C@@H](C)N[C@@H](C)C1 [Example 34, 3-(4-(Dimethylamino)-1-(3-((R)-1-((3S,5R)-3,5-dimethylpiperazin-1-yl)butyl)quinoxalin-6-yl)piperidin-4-yl)phenol]	< 500	< 100	–	–
CCC[C@H](c1ncc2cc(N3CCC(c4cccc(O)c4)(N(C)C)CC3)ccc2n1)N1C[C@@H](C)N[C@@H](C)C1 [Example 26, 3-(4-(Dimethylamino)-1-(2-((R)-1-((3S,5R)-3,5-dimethylpiperazin-1-yl)butyl)quinazolin-6-yl)piperidin-4-yl)phenol]	> 5000	< 100	–	–
CCCC(c1nc2ccc(CN3CCC(c4cccc(O)c4)(N(C)C)CC3)cc2nc1CC)N1C[C@@H](C)N[C@@H](C)C1 (stereo partly drawn) [Example 40, 3-(4-(Dimethylamino)-1-((2-(1-((3S,5R)-3,5-dimethylpiperazin-1-yl)butyl)-3-ethylquinoxalin-6-yl)methyl)piperidin-4-yl)phenol]	< 500	< 100	–	–
CCC[C@H](c1cnc2cc(CN3CCC(c4cccc(O)c4)(N(C)C)CC3)ccc2c1)N1C[C@@H](C)N[C@@H](C)C1 [Example 8, 3-(4-(Dimethylamino)-1-((3-((R)-1-((3S,5R)-3,5-dimethylpiperazin-1-yl)butyl)quinolin-7-yl)methyl)piperidin-4-yl)phenol]	< 500	< 100	–	–
CCCC(c1cnc2ccc(N3CCC(c4cccc(O)c4)(N(C)C)CC3)cc2n1)N1C[C@@H](C)N[C@@H](C)C1 (stereo partly drawn) [Example 33, 3-(4-(Dimethylamino)-1-(3-(1-((3S,5R)-3,5-dimethylpiperazin-1-yl)butyl)quinoxalin-6-yl)piperidin-4-yl)phenol]	< 500	< 100	–	–
CCC[C@H](c1ccc2cc(CN3CCC(c4cccc(O)c4)(N(C)C)CC3)ccc2n1)N1C[C@@H](C)N[C@@H](C)C1 [Example 10, 3-(4-(Dimethylamino)-1-((2-((R)-1-((3S,5R)-3,5-dimethylpiperazin-1-yl)butyl)quinolin-6-yl)methyl)piperidin-4-yl)phenol]	< 500	< 100	–	–
CCC[C@@H](c1cnc2cc(CN3CCC(c4cccc(O)c4)(N(C)C)CC3)ccc2c1)N1C[C@@H](C)N[C@@H](C)C1 [Example 9, 3-(4-(Dimethylamino)-1-((3-((S)-1-((3S,5R)-3,5-dimethylpiperazin-1-yl)butyl)quinolin-7-yl)methyl)piperidin-4-yl)phenol]	–	–	500 to 5000	< 100
CCCC(c1cc2ccc(N3CCC(c4cccc(O)c4)(N(C)C)CC3)cc2nc1CC)N1C[C@@H](C)N[C@@H](C)C1 (stereo partly drawn) [Example 20, 3-(4-(Dimethylamino)-1-(3-(1-((3S,5R)-3,5-dimethylpiperazin-1-yl)butyl)-2-ethylquinolin-7-yl)piperidin-4-yl)phenol]	< 500	< 100	–	–
CCCC(c1cnc2cc(CN3CCC(c4cccc(O)c4)(N(C)C)CC3)ccc2c1)N1C[C@@H](C)N[C@@H](C)C1 (stereo partly drawn) [Example 6, 3-(4-(Dimethylamino)-1-((3-(1-((3S,5R)-3,5-dimethylpiperazin-1-yl)butyl)quinolin-7-yl)methyl)piperidin-4-yl)phenol]	< 500	< 100	–	–
CCC[C@H](c1nc2ccc(CN3CCC(c4cccc(O)c4)(N(C)C)CC3)cc2nc1CC)N1C[C@@H](C)N[C@@H](C)C1 [Example 41, 3-(4-(Dimethylamino)-1-((2-((R)-1-((3S,5R)-3,5-dimethylpiperazin-1-yl)butyl)-3-ethylquinoxalin-6-yl)methyl)piperidin-4-yl)phenol]	< 500	< 100	–	–
CCC[C@H](c1cnc2cc(N3CCC(c4cccc(O)c4)(N(C)C)CC3)ccc2c1)N1C[C@@H](C)N[C@@H](C)C1 [Example 4, 3-(4-(Dimethylamino)-1-(3-((R)-1-((3S,5R)-3,5-dimethylpiperazin-1-yl)butyl)quinolin-7-yl)piperidin-4-yl)phenol]	–	–	500 to 5000	< 100
CCC[C@@H](c1cc2ccc(CN3CCC(c4cccc(O)c4)(N(C)C)CC3)cc2nc1CC)N1C[C@@H](C)N[C@@H](C)C1 [Example 24, 3-(4-(Dimethylamino)-1-((3-((S)-1-((3S,5R)-3,5-dimethylpiperazin-1-yl)butyl)-2-ethylquinolin-7-yl)methyl)piperidin-4-yl)phenol]	–	–	500 to 5000	< 100
CCCC(c1cnc2ccc(CN3CCC(c4cccc(O)c4)(N(C)C)CC3)cc2n1)N1C[C@@H](C)N[C@@H](C)C1 (stereo partly drawn) [Example 37, 3-(4-(Dimethylamino)-1-((3-(1-((3S,5R)-3,5-dimethylpiperazin-1-yl)butyl)quinoxalin-6-yl)methyl)piperidin-4-yl)phenol]	< 500	< 100	–	–
CCC[C@H](c1cnc2cc(CN3CCC(c4ccccc4)(N(C)C)CC3)ccc2c1)N1C[C@@H](C)N[C@@H](C)C1 [Example 12, 1-((3-((R)-1-((3S,5R)-3,5-Dimethylpiperazin-1-yl)butyl)quinolin-7-yl)methyl)-N,N-dimethyl-4-phenylpiperidin-4-amine]	< 500	100 to 500	–	–
CCC[C@H](c1ncc2cc(CN3CCC(c4cccc(O)c4)(N(C)C)CC3)ccc2n1)N1C[C@@H](C)N[C@@H](C)C1 [Example 29, 3-(4-(Dimethylamino)-1-((2-((R)-1-((3S,5R)-3,5-dimethylpiperazin-1-yl)butyl)quinazolin-6-yl)methyl)piperidin-4-yl)phenol]	–	–	500 to 5000	< 100
CCCC(c1ccc2cc(CN3CCC(c4cccc(O)c4)(N(C)C)CC3)ccc2n1)N1C[C@@H](C)N[C@@H](C)C1 (stereo partly drawn) [Example 7, 3-(4-(Dimethylamino)-1-((2-(1-((3S,5R)-3,5-dimethylpiperazin-1-yl)butyl)quinolin-6-yl)methyl)piperidin-4-yl)phenol]	< 500	< 100	–	–
